Data as given in the supplement of paper PMC10307832.

Columns and labels:
Assay in all cases: relative viability (nuclei count vs DMSO), 5 days (fraction); higher = more cells survive
[1] = system: NCI-H2347
Outline: (§1)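 Nuclei were stained with Hoechst during a one-step fixation (final 0.05% Triton X-100, 1% formaldehyde, 1 ug/ml Hoechst) carried out 5 days after dosing, then counted on 4× images. The cells, lung cancer lines in 1536-well plates, had been dosed by pin tool the day after seeding with one drug alone or a fixed anchor-drug dose plus five library-drug doses (not always all listed) in √10 steps. Relative viability is the nuclei count in treated wells divided by that in vehicle wells, and each value is the median of duplicate plates.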

[2] = system: UMC-11
Outline: as §1

[3] = system: NCI-H838
Outline: as §1

[4] = system: NCI-H2009
Outline: as §1

[5] = system: NCI-H647
Outline: as §1

[6] = system: HARA
Outline: as §1

[7] = system: HOP-62
Outline: as §1

[8] = system: COR-L23
Outline: as §1

[9] = system: NCI-H2228
Outline: as §1

[10] = system: HCC-15
Outline: as §1

[11] = system: NCI-H1734
Outline: as §1

[12] = system: PC-14
Outline: as §1

[13] = system: COR-L 105
Outline: as §1

[14] = system: NCI-H1755
Outline: as §1

[15] = system: NCI-H1355
Outline: as §1

[16] = system: EKVX
Outline: as §1

[17] = system: NCI-H1993
Outline: as §1

In the case of C=C1C(=O)O[C@@H](CCCCCCCC)[C@@H]1C(=O)O [C-75] + CC(C)C[C@H](NC(=O)[C@H](Cc1ccccc1)NC(=O)c1cnccn1)B(O)O [Bortezomib] (partner 0.002 µM), the relative viability ([1]; first compound 0.08 µM) is reported as 1.06, the relative viability ([1]; first compound 0.253 µM) is reported as 1.09 and the relative viability ([1]; first compound 2.53 µM) is reported as 0.851. For the same compound, the relative viability ([1]; first compound 8 µM) was 0.741, the relative viability ([2]; first compound 0.08 µM) was 0.691 and the relative viability ([2]; first compound 0.253 µM) was 0.761. It also gave a relative viability ([2]; first compound 0.8 µM) of 0.804, a relative viability ([2]; first compound 2.53 µM) of 0.575 and a relative viability ([2]; first compound 8 µM) of 0.604. For the same compound, the relative viability ([3]; first compound 0.08 µM) was 0.66, the relative viability ([3]; first compound 0.253 µM) was 0.588 and the relative viability ([3]; first compound 0.8 µM) was 0.8. It also gave a relative viability ([3]; first compound 2.53 µM) of 0.656, a relative viability ([3]; first compound 8 µM) of 0.684 and a relative viability ([4]; first compound 0.08 µM) of 1.03. It also gave a relative viability ([4]; first compound 0.253 µM) of 1.06, a relative viability ([4]; first compound 0.8 µM) of 0.927 and a relative viability ([4]; first compound 2.53 µM) of 0.826. The relative viability ([4]; first compound 8 µM) was 0.866, the relative viability ([5]; first compound 0.08 µM) was 0.836 and the relative viability ([5]; first compound 0.253 µM) was 1.1. It also gave a relative viability ([5]; first compound 2.53 µM) of 0.869, a relative viability ([5]; first compound 8 µM) of 0.809 and a relative viability ([6]; first compound 0.08 µM) of 1.14. The relative viability ([6]; first compound 0.253 µM) was 1.22, the relative viability ([6]; first compound 0.8 µM) was 1.07 and the relative viability ([6]; first compound 8 µM) was 1.26. It also gave a relative viability ([7]; first compound 0.08 µM) of 0.651, a relative viability ([7]; first compound 0.253 µM) of 0.676 and a relative viability ([7]; first compound 0.8 µM) of 0.89. It also gave a relative viability ([7]; first compound 2.53 µM) of 0.778, a relative viability ([7]; first compound 8 µM) of 0.916 and a relative viability ([8]; first compound 0.08 µM) of 0.953. It also gave a relative viability ([8]; first compound 0.253 µM) of 1.05, a relative viability ([8]; first compound 0.8 µM) of 0.946 and a relative viability ([8]; first compound 2.53 µM) of 0.698. It also gave a relative viability ([8]; first compound 8 µM) of 0.818, a relative viability ([9]; first compound 0.08 µM) of 0.836 and a relative viability ([9]; first compound 0.253 µM) of 1.43. It also gave a relative viability ([9]; first compound 0.8 µM) of 0.8, a relative viability ([9]; first compound 2.53 µM) of 0.729 and a relative viability ([9]; first compound 8 µM) of 0.746. For the same compound, the relative viability ([10]; first compound 0.08 µM) was 1.04, the relative viability ([10]; first compound 0.253 µM) was 1.05 and the relative viability ([10]; first compound 0.8 µM) was 0.944. The relative viability ([10]; first compound 2.53 µM) was 0.943, the relative viability ([10]; first compound 8 µM) was 1.01 and the relative viability ([11]; first compound 0.08 µM) was 1.13. The relative viability ([11]; first compound 0.253 µM) was 0.934, the relative viability ([11]; first compound 0.8 µM) was 0.886 and the relative viability ([11]; first compound 2.53 µM) was 0.812. It also gave a relative viability ([11]; first compound 8 µM) of 0.785, a relative viability ([12]; first compound 0.08 µM) of 0.853 and a relative viability ([12]; first compound 0.253 µM) of 0.969. The relative viability ([12]; first compound 0.8 µM) was 0.94, the relative viability ([12]; first compound 2.53 µM) was 0.726 and the relative viability ([12]; first compound 8 µM) was 0.965. It also gave a relative viability ([13]; first compound 0.08 µM) of 0.838, a relative viability ([13]; first compound 0.253 µM) of 0.627 and a relative viability ([13]; first compound 0.8 µM) of 0.779. It also gave a relative viability ([13]; first compound 2.53 µM) of 0.809, a relative viability ([13]; first compound 8 µM) of 0.728 and a relative viability ([14]; first compound 0.08 µM) of 0.985. It also gave a relative viability ([14]; first compound 0.253 µM) of 0.96, a relative viability ([14]; first compound 0.8 µM) of 0.925 and a relative viability ([14]; first compound 2.53 µM) of 0.805. The relative viability ([14]; first compound 8 µM) was 0.957, the relative viability ([15]; first compound 0.08 µM) was 1.24 and the relative viability ([15]; first compound 0.253 µM) was 1.28. For the same compound, the relative viability ([15]; first compound 0.8 µM) was 1.07, the relative viability ([15]; first compound 2.53 µM) was 1.1 and the relative viability ([15]; first compound 8 µM) was 1.21. For the same compound, the relative viability ([16]; first compound 0.08 µM) was 0.996, the relative viability ([16]; first compound 0.253 µM) was 1.09 and the relative viability ([16]; first compound 0.8 µM) was 1.17. The relative viability ([16]; first compound 2.53 µM) was 0.947, the relative viability ([16]; first compound 8 µM) was 1.01 and the relative viability ([17]; first compound 0.08 µM) was 0.951. It also gave a relative viability ([17]; first compound 0.253 µM) of 1.24, a relative viability ([17]; first compound 0.8 µM) of 1.08 and a relative viability ([17]; first compound 2.53 µM) of 0.54. For the same compound, the relative viability ([17]; first compound 8 µM) was 1.09.
